Test results taken from patent publication US20240335544A1, “M6PR CELL SURFACE RECEPTOR BINDING COMPOUNDS AND CONJUGATES” (LYCIA THERAPEUTICS, INC., priority 2021, published 2024).
Entries after “also recorded” stand apart in the source; their conditions may differ. Where two headings read alike, the source gives them in different places. One block for each molecule: values may come before it.

Assays:
[1] = target: T1, M6PR (Domains I-9, R&D Systems) (Homo sapiens, UniProt P11717); assay: General M6PR binding assay (fluorescence polarization); settings: Table 16F, unconjugated compounds, 100 nM M6PR, 1 nM probe, 2 hr incubation
T1 construct: with 100 nM M6PR (Domains I-9, R&D Systems) and 1 nM probe; purchased R&D Systems
Description: M6PR binding was measured in black 96-well plates using a fluorescence polarization assay. A fluorescent probe consisting of a reference M6Pn ligand linked to Cy5 was synthesized. Test compounds were resuspended in DMSO and 3-fold serial dilutions were made at 100× final concentrations. Binding reactions were conducted in 100 μl final volume in 20 mM HEPES (pH 7.5) 100 mM NaCl 0.015% Tween-20 1% DMSO with 100 nM M6PR (Domains I-9, R&D Systems) and 1 nM probe. Fluorescence polarization was measured using Xex=620 nm, λem=688 nm on an Envision plate reader (Perkin Elmer) after 2 hr incubation time. Dose responses were conducted in duplicate and normalized to the response with DMSO (high) and 1 μM reference compound (low) on each plate. IC50 values were determined by fitting to 4-parameter curves in GraphPad Prism.

[2] = target: CI-M6PR (Homo sapiens, UniProt P11717); assay: Human CI-M6PR binding assay (ELISA); design: purchased R&D 6418-GR-050
Description: Nunc black solid bottom MaxiSorp plates were allowed to incubate overnight at 4° C. coated with 1 μg/mL of recombinant human CI-M6PR protein (R&D, 6418-GR-050) in 50 μL PBS. The next day, coating was decanted and plates were washed 3× with PBS. Wells were blocked with 350 μL of 3% BSA-PBS for 1 hour at room temperature. […] 50 μL of diluted conjugates were added to the plate and allowed to incubate at room temperature for 2 hours. After incubation, solutions in plate were decanted and washed with 350 μL of 0.05% PBS-Tween20 three times, drying the plate each wash on a clean paper towel. 50 μL of peroxidase AffiniPure Mouse Anti-Human IgG (Jackson Immuno, 209-035-088) diluted in 3% BSA-PBS to […] was added to the plate and allowed to incubate for 1 hour at room temperature in the dark. After incubation, solutions in plate were decanted and washed with 350 μL of 0.05% PBS-Tween20 3 times, drying the plate each wash on a clean paper towel. […] 50 μL of QuantaBlu solution was added to wells and allowed to incubate for 5-10 minutes at room temperature. After incubation, plates were read on a Perkin Elmer EnVision using photometric 340 and Umbelliferone 460 filter sets for excitation and emission, respectively. Data analysis and non-linear curve-fitting was performed using GraphPad Prism.

[3] = test system: Jurkat cells; assay: Uptake of IgE-Alexa488 target by omalizumab conjugates in Jurkat cells; assay type: cell-based; settings: for relative cellular uptake activity of IgE-Alexa488, omalizumab conjugates of Table 15B / relative cellular uptake activity of IgE-Alexa488, omalizumab conjugates of Table 15A: 1 hour; for relative cellular uptake activity of IgE-Alexa488, omalizumab conjugates of Table 15B: FIGS. 18-21; for relative cellular uptake activity of IgE-Alexa488, omalizumab conjugates of Table 15A: FIGS. 15-17
Description: The omalizumab conjugates of Example 142 were bound to IgE-Alexa488 (prepared according to Example 144), as follows: equal molar ratios of omalizumab (anti-IgE) conjugate and IgE-Alexa488 were added in tissue culture media for 30 minutes at room temperature. The resulting anti-IgE conjugate:IgE antibody-Alexa488 compositions were added to Jurkat cells (100 k cells/50 ul per well, n=2), and Alexa488 fluorescence levels in the cells were measured at 1 hour by flow cytometry. As the fluorescently labelled target (IgE antibody) accumulates in cells, the fluorescence presents a way to measure total intracellular uptake by cells over time.

[4] = Table 16D, conjugate, m average loading DAR 2, read-out: EC50 in M6PR binding assay for conjugates of compounds of varying multivalency

T1 sequence (P11717 41-1365 limits assumed): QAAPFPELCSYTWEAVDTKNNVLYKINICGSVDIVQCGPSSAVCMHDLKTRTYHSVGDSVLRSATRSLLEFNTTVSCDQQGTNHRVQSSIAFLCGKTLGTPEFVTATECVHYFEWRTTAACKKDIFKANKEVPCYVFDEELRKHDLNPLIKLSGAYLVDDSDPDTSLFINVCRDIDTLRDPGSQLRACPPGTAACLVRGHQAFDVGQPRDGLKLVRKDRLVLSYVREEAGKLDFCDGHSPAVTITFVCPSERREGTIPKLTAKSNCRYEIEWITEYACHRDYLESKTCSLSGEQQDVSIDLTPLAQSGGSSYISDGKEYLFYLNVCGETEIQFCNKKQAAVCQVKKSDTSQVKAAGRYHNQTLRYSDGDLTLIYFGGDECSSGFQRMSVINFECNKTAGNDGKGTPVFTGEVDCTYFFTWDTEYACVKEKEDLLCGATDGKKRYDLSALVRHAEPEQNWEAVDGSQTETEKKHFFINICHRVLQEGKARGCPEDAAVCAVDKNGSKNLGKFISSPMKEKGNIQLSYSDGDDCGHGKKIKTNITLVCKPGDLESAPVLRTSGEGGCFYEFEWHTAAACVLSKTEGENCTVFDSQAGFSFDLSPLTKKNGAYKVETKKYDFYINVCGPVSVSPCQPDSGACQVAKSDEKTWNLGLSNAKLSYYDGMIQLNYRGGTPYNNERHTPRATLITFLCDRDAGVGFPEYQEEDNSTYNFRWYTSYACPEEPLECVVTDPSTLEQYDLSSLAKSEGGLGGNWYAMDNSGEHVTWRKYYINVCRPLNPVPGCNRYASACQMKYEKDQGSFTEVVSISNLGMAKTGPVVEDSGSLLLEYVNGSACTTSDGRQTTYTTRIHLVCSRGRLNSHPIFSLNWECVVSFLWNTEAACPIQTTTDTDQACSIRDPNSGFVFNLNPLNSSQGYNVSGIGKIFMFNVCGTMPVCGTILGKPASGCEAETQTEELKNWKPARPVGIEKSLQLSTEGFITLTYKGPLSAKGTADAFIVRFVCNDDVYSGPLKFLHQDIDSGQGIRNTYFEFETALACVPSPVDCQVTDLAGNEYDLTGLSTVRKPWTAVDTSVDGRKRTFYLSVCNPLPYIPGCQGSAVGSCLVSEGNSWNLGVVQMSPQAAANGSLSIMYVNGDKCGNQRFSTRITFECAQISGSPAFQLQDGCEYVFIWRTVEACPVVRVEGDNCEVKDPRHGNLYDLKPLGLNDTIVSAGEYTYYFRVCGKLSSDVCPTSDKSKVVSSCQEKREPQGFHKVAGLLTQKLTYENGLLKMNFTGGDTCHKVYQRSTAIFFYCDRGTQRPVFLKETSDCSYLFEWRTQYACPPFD
CI-M6PR, sequence (P11717 41-1365 limits assumed): as above

IC50 [1]: 50 to 100 nM
SMILES: O=C(O)CCOCCOCCOCCOCCNC(=O)[C@H](CCCCn1cc(CCCCNC(=O)Nc2ccc(O[C@H]3O[C@H](CCP(=O)(O)O)[C@@H](O)[C@H](O)[C@@H]3O)cc2)nn1)NC(=O)[C@H](CCCCn1cc(CCCCNC(=O)Nc2ccc(O[C@H]3O[C@H](CCP(=O)(O)O)[C@@H](O)[C@H](O)[C@@H]3O)cc2)nn1)NC(=O)[C@H](CCCCn1cc(CCCCNC(=O)Nc2ccc(O[C@H]3O[C@H](CCP(=O)(O)O)[C@@H](O)[C@H](O)[C@@H]3O)cc2)nn1)NC(=O)CCCn1cc(CCCCNC(=O)Nc2ccc(O[C@H]3O[C@H](CCP(=O)(O)O)[C@@H](O)[C@H](O)[C@@H]3O)cc2)nn1 [Compound 772]

SMILES: O=C(CCCn1cc(CCCCNC(=S)Nc2ccc(O[C@H]3O[C@H](CCP(=O)(O)O)[C@@H](O)[C@H](O)[C@@H]3O)cc2)nn1)N[C@@H](CCCCn1cc(CCCCNC(=S)Nc2ccc(O[C@H]3O[C@H](CCP(=O)(O)O)[C@@H](O)[C@H](O)[C@@H]3O)cc2)nn1)C(=O)N[C@@H](CCCCn1cc(CCCCNC(=S)Nc2ccc(O[C@H]3O[C@H](CCP(=O)(O)O)[C@@H](O)[C@H](O)[C@@H]3O)cc2)nn1)C(=O)N[C@@H](CCCCn1cc(CCCCNC(=S)Nc2ccc(O[C@H]3O[C@H](CCP(=O)(O)O)[C@@H](O)[C@H](O)[C@@H]3O)cc2)nn1)C(=O)NCCOCCOCCOCCOCCC(=O)Oc1c(F)c(F)c(F)c(F)c1F [763 (I-52)]
EC50 [2, 4]: 0.3 nM

SMILES: CO[C@H]1O[C@H](COCCCCCc2cn(CCOCCOCCOCCOCCC(=O)Oc3c(F)c(F)c(F)c(F)c3F)nn2)[C@@H](O)[C@H](O)[C@@H]1O[C@H]1O[C@H](CCP(=O)(O)O)[C@@H](O)[C@H](O)[C@@H]1O [Compound 659]
relative cellular uptake activity of IgE-Alexa488, omalizumab conjugates of Table 15B [3]: potent and comparable activity to conjugate of a conjugate of compound 520 (I-7)

SMILES: O=C(CCCn1cc(CCCCNC(=S)Nc2ccc(O[C@H]3O[C@H](CCP(=O)(O)O)[C@@H](O)[C@H](O)[C@@H]3O)cc2)nn1)N[C@@H](CCCCn1cc(CCCCNC(=S)Nc2ccc(O[C@H]3O[C@H](CCP(=O)(O)O)[C@@H](O)[C@H](O)[C@@H]3O)cc2)nn1)C(=O)N[C@@H](CCCCn1cc(CCCCNC(=S)Nc2ccc(O[C@H]3O[C@H](CCP(=O)(O)O)[C@@H](O)[C@H](O)[C@@H]3O)cc2)nn1)C(=O)N[C@@H](CCCCn1cc(CCCCNC(=S)Nc2ccc(O[C@H]3O[C@H](CCP(=O)(O)O)[C@@H](O)[C@H](O)[C@@H]3O)cc2)nn1)C(=O)NCCOCCOCCOCCOCCC(=O)Oc1c(F)c(F)c(F)c(F)c1F [Compound I-52]
EC50 ([2]; Table 16B, antibody conjugate, average loading DAR 6, read-out: EC50 in M6PR binding assay): 0.28 nM

SMILES: O=C(CCOCCOCCOCCOCCn1cc(CCCCNC(=S)Nc2ccc(O[C@H]3O[C@H](CCS(=O)(=O)O)[C@@H](O)[C@H](O)[C@@H]3O)cc2)nn1)Oc1c(F)c(F)c(F)c(F)c1F [556 (1-104)]
relative cellular uptake activity of IgE-Alexa488, omalizumab conjugates of Table 15A [3]: low activity

SMILES: O=C(NCCCCc1cn(CCOCCOCCOCCOCCC(=O)Oc2c(F)c(F)c(F)c(F)c2F)nn1)Nc1ccc(O[C@H]2C[C@H](CCP(=O)(O)O)[C@@H](O)[C@H](O)[C@@H]2O)cc1 [Compound 665]
relative cellular uptake activity of IgE-Alexa488, omalizumab conjugates of Table 15A [3]: low activity

SMILES: O=C(NCCCCc1cn(CCOCCOCCOCCOCCC(=O)Oc2c(F)c(F)c(F)c(F)c2F)nn1)Nc1ccc(S[C@H]2O[C@H](CCP(=O)(O)O)[C@@H](O)[C@H](O)[C@@H]2O)cc1 [Compound 552]
relative cellular uptake activity of IgE-Alexa488, omalizumab conjugates of Table 15B [3]: comparable activity to an 0-glycoside (520 (I-7) with m=8); also recorded: more activity when at m=6 loading versus m=4 loading | relative cellular uptake activity of IgE-Alexa488, omalizumab conjugates of Table 19 ([3]; FIG. 23, entire dose response range): comparable by less activity that the conjugate of α-O-glycoside (529)

SMILES: O=C(CCOCCOCCOCCN(CCOCCOCCOCCn1cc(CCCCNC(=S)Nc2ccc(O[C@H]3O[C@H](CCP(=O)(O)O)[C@@H](O)[C@H](O)[C@@H]3O)cc2)nn1)CCOCCOCCOCCn1cc(CCCCNC(=S)Nc2ccc(O[C@H]3O[C@H](CCP(=O)(O)O)[C@@H](O)[C@H](O)[C@@H]3O)cc2)nn1)Oc1c(F)c(F)c(F)c(F)c1F [704 (I-40)]
EC50 [2, 4]: 0.66 nM | EC50 ([2]; Table 16D, conjugate, m average loading DAR 7, read-out: EC50 in M6PR binding assay for conjugates of compounds of varying multivalency): 0.2 nM

SMILES: O=C(CCOCCOCCOCCN(CCOCCOCCOCCn1cc(CCO[C@H]2O[C@H](CCP(=O)(O)O)[C@@H](O)[C@H](O)[C@@H]2O)nn1)CCOCCOCCOCCn1cc(CCO[C@H]2O[C@H](CCP(=O)(O)O)[C@@H](O)[C@H](O)[C@@H]2O)nn1)Oc1c(F)c(F)c(F)c(F)c1F [Compound 716]
relative cellular uptake activity of IgE-Alexa488, omalizumab conjugates of Table 15A [3]: inferior uptake to 520 (I-7) with m=8

SMILES: CO[C@H]1OC(c2cn(CCOCCOCCOCCOCCOCCOCCC(=O)Oc3c(F)c(F)c(F)c(F)c3F)nn2)[C@@H](O)[C@H](O)[C@@H]1O[C@H]1O[C@H](CCP(=O)(O)O)[C@@H](O)[C@H](O)[C@@H]1O (stereo partly drawn) [Compound 660]
relative cellular uptake activity of IgE-Alexa488, omalizumab conjugates of Table 15B [3]: potent and comparable activity to conjugate of a conjugate of compound 520 (I-7)

SMILES: CC(=O)N[C@@H](CCCCn1cc(CCCCNC(=O)Nc2ccc(O[C@H]3O[C@H](CCP(=O)(O)O)[C@@H](O)[C@H](O)[C@@H]3O)cc2)nn1)C(=O)N[C@@H](CCCCn1cc(CCCCNC(=O)Nc2ccc(O[C@H]3O[C@H](CCP(=O)(O)O)[C@@H](O)[C@H](O)[C@@H]3O)cc2)nn1)C(=O)NCCOCCOCCOCCOCCC(=O)O [Compound 769]
IC50 [1]: 100 to 500 nM

IC50 [1]: 100 to 500 nM
SMILES: O=C(NCCCCc1cn(-c2cccnc2)nn1)Nc1ccc(C[C@H]2O[C@H](CCP(=O)(O)O)[C@@H](O)[C@H](O)[C@@H]2O)cc1 [Compound P5]

IC50 [1]: 100 to 500 nM
SMILES: C#CCCCCNC(=O)Nc1ccc(O[C@H]2O[C@H](CCP(=O)(O)O)[C@@H](O)[C@H](O)[C@@H]2O)cc1 [Compound 38C]

IC50 [1]: 100 to 500 nM
SMILES: CC(=O)N[C@@H](CCCCn1cc(CCCCNC(=O)Nc2ccc(O[C@H]3O[C@H](CCP(=O)(O)O)[C@@H](O)[C@H](O)[C@@H]3O)cc2)nn1)C(=O)NCCOCCOCCOCCOCCC(=O)O [Compound 771]

IC50 [1]: 100 to 500 nM
SMILES: C#CCCCC(=O)Nc1ccc2cc(O[C@H]3O[C@H](CCP(=O)(O)O)[C@@H](O)[C@H](O)[C@@H]3O)ccc2c1 [Compound I-68, (2-((2R,3S,4S,5S,6R)-6-((6-(hex-5-ynamido)naphthalen-2-yl)oxy)-3,4,5-trihydroxytetrahydro-2H-pyran-2-yl)ethyl)phosphonic acid]

SMILES: O=C(CCOCCOCCOCCOCCOCCOCCOCCOCc1cn([C@H]2O[C@H](CCP(=O)(O)O)[C@@H](O)[C@H](O)[C@@H]2O)nn1)ON1C(=O)CCC1=O [Compound 664]
relative cellular uptake activity of IgE-Alexa488, omalizumab conjugates of Table 15B [3]: minimal activity

SMILES: O=C(NCCCCc1cn(CCOCCOCCOCCOCCC(=O)Oc2c(F)c(F)cc(F)c2F)nn1)Nc1ccc(O[C@H]2O[C@H](CCP(=O)(O)O)[C@@H](O)[C@H](O)[C@@H]2O)cc1 [Compound 558]
relative cellular uptake activity of IgE-Alexa488, omalizumab conjugates of Table 15A [3]: active in this assay, although less active in comparison to the corresponding analog containing a phosphonate hydrophilic head group (529 (I-38))

SMILES: O=C(CCOCCOCCOCCOCCn1cc(CCCCNC(=S)Nc2ccc(O[C@H]3O[C@H](CC(C(=O)O)C(=O)O)[C@@H](O)[C@H](O)[C@@H]3O)cc2)nn1)Oc1c(F)c(F)c(F)c(F)c1F [Compound 559]
EC50 ([2]; Table 16E, conjugate, m average DAR 9, read-out: EC50 in M6PR binding assay for conjugates of monovalent compounds of varying linker length and loading): 3.36 nM

SMILES: Cc1cc(NC(=O)NCCCCc2cn(CCOCCOCCOCCOCCC(=O)Oc3c(F)c(F)c(F)c(F)c3F)nn2)ccc1O[C@H]1O[C@H](CCP(=O)(O)O)[C@@H](O)[C@H](O)[C@@H]1O [545 (I-87)]
EC50 ([2]; Table 16C, cetuximab (anti-EGFR) conjugate, average loading DAR 9.2, read-out: EC50 in M6PR binding assay): 0.3 nM
